Experiment [1] in a line: Artemis endonuclease inhibitor potency, dose response, biochemical, fluorescence intensity (AID 720701).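 Also: Artemis endonuclease enzyme.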 Type of experiment: functional.
Another experiment has as its system INS1. Kind of experiment: beta cell apoptosis inhibitors, cytokine rescue, dose response, luminescence, retest (AID 449756).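 Also: cell death triggered by IL-1 beta plus TNF-alpha plus IFN-gamma mixture; protective hits raise ATP signal compared with cytokine alone wells.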 Type of experiment: functional, cell-based. The following applies: Rattus norvegicus.
The target in a further experiment is fMet-Leu-Phe receptor (Homo sapiens, UniProt P21462). Put plainly: FPR ligands, dose response (AID 519). The class given is functional.
Experiment [2] is described as follows: IGROV1 ovarian cancer cell cytotoxicity, dose response, PAX8 inhibitor project, plate reader, dry powder samples (AID 743043). The class given is functional, cell-based. The following applies: IGROV-1.
Experiment [3] in a line: NIH:OVCAR-3 ovarian cancer cell cytotoxicity, dose response, PAX8 inhibitor project, plate reader, dry powder samples (AID 743044). The class given is functional, cell-based.
Experiment [4] is described as follows: IOSE-T80 ovarian epithelial cell cytotoxicity, dose response, cytotoxicity control for PAX8 inhibitor project, plate reader, dry powder samples (AID 743045). The class given is functional, cell-based.
Another experiment has as its target Paired box protein Pax-8 (Homo sapiens, UniProt Q06710). Put plainly: inhibitors of PAX8-driven TPO luciferase reporter, dose response, RMG-I cells, cherry-pick (AID 687027).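 Also: luciferase reporter driven by Pax8 target thyroperoxidase promoter measured by SteadyGlo luminescence.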 The class given is functional, cell-based.
Experiment [5] in a line: cytotoxicity in OVCAR8 ovarian cancer cells, dose response, PAX8 project, cell-based, plate reader, dry powder samples (AID 743197). Type of experiment: functional. The note with it: OVCAR-8.
Experiment [6] in a line: HEK293T cell cytotoxicity, dose response, cytotoxicity control, CellTiter-Glo luminescence, dry powder, set 2 (AID 720595). Type of experiment: functional, cell-based. The note with it: HEK293. In general terms: Cellular ATP, detected with luciferase, serves as a proxy for viable cell number.
A short description of experiment [7]: HeLa cell cytotoxicity, dose response, cytotoxicity control, CellTiter-Glo luminescence, dry powder, set 2 (AID 720593). The class given is functional, cell-based.
Experiment [8] is described as follows: AlphaScreen signal interference by compounds, dose response, artefact control for ARNT/TACC3 disruptor project, biochemical, dual-tagged ARNT, dry powder (AID 720564). Background: Alpha assays give light when donor and acceptor beads are brought close together.
Experiment [9] in a line: cytotoxicity in HepG2 cells, dose response, cytotoxicity control, cell-based, plate reader, dry powder (AID 651947). The class given is functional.
For experiment [10], the target named is C-C chemokine receptor type 6 (Homo sapiens, UniProt P51684). Kind of experiment: SAR analysis of small molecule antagonists of the CXCR6 receptor using a CCR6 receptor luminescent beta-arrestin counterscreen. Type of experiment: functional.
For experiment [11], the target named is C-X-C chemokine receptor type 4 (Homo sapiens, UniProt P61073). Kind of experiment: SAR analysis of small molecule antagonists of the CXCR6 receptor using a CXCR4 receptor luminescent beta-arrestin counterscreen. Type of experiment: functional.

The source made the active and inactive calls. Unless noted, the rule behind the calls is not given here.

Chain of C-C chemokine receptor type 6 (P51684 whole entry): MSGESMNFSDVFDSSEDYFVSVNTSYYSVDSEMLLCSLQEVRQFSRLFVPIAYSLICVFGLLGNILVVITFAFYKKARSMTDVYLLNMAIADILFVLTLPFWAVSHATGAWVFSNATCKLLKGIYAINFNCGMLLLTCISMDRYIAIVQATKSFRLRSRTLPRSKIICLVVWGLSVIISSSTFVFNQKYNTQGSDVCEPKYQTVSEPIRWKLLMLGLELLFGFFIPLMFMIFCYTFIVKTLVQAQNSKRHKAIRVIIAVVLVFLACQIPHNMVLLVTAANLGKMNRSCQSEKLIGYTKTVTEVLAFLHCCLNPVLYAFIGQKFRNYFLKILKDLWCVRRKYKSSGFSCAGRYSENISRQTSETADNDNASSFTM
Chain of C-X-C chemokine receptor type 4 (P61073 whole entry): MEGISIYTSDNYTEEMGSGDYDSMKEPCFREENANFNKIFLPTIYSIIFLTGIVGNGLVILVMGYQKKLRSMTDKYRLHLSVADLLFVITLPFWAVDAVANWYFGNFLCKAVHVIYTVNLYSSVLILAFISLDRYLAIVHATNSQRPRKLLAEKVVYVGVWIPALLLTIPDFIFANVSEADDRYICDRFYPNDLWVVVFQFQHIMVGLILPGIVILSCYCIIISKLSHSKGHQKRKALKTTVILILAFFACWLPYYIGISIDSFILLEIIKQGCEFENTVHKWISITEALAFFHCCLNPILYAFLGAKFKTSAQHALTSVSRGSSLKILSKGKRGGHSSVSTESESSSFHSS
Chain of fMet-Leu-Phe receptor (P21462 whole entry): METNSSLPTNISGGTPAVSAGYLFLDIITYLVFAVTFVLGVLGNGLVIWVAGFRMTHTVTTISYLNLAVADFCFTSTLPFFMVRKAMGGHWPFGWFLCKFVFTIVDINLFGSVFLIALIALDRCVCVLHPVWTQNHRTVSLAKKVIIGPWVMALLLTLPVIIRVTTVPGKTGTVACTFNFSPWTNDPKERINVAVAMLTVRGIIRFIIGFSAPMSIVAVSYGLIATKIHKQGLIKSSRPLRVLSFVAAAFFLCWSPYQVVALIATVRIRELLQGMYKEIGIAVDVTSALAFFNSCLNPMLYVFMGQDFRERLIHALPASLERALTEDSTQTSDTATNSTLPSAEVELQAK
Chain of Paired box protein Pax-8 (Q06710 whole entry): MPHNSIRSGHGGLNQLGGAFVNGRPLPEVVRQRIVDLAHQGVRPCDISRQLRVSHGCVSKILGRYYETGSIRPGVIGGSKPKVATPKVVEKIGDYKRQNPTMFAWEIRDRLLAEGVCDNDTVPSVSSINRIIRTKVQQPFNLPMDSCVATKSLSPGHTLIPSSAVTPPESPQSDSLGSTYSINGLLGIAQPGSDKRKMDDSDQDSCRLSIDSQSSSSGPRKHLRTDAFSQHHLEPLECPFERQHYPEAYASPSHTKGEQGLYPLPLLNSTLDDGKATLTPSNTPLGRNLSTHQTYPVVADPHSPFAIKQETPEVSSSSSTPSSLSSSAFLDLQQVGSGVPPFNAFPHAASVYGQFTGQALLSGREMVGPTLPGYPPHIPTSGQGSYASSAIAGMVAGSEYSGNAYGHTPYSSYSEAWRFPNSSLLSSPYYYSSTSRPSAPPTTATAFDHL

As usually defined, the IC50 is the concentration that inhibits the measured activity by half. In general, AC50 refers to the concentration giving half of the maximal activity seen. With `c1ccc(-c2nnc3sc(-c4csc5c4CCCC5)nn23)cc1`, the IC50 in [1] was > 20 µM (inactive). Besides, the AC50 with INS1 was 64.1 µM (active).
In general, Ki refers to a measure of affinity in units of concentration, obtained from inhibition or displacement. Consider `Cc1cc(SCC(N)=O)nc(SCC(=O)c2ccccc2)n1`, for which, on fMet-Leu-Phe receptor, the Ki was > 66.7 µM (inactive).
In the case of `O=C(NC1CCCCC1)N1C[C@@H]2N[C@H](C1)[C@@H]2c1ccc(-c2ccc(F)cc2)cc1`, the AC50 was 63.7 µM (active) in experiment [2]; 22 µM (active) in [3]; 45.7 µM (active) in [4]; 17.2 µM (active) on Paired box protein Pax-8; > 70 µM (inactive) in experiment [5].
As to `O=C(Nc1nnc(-c2ccc(F)cc2)o1)c1ccc(S(=O)(=O)N2CCCCC2)cc1`, the results for the AC50 in [6], in [7] and in experiment [8] were 2.51 µM (active), 46.1 µM (active) and 72.4 µM (active), respectively.
On to `FC(F)(F)c1ccc(CSc2nnc(-c3ccccc3)o2)cc1`, for which the AC50 in experiment [9] was 0.223 µM (active).
Take `COc1cc(C(=O)NC2CC3CCCC(C2)N3CC(=O)Nc2ccccc2)cc(OC)c1OC` (centres undefined): the IC50 in experiment [10] and in experiment [11] was > 79 µM (inactive) in each case.
